Tests used:
[1] = test system: plasmacytoid dendritic cells (pDC); experiment: IFN-α and cytokine production by purified human pDC (ELISA of supernatants); format: cell-based
Excerpt: PDC from healthy donors were purified from freshly collected buffy coats. Briefly, PBMC were isolated by Ficoll-Hypaque density gradient centrifugation (GE Healthcare, Piscatway, N.J.) followed by positive sorting using anti-BDCA4-conjugated magnetic microbeads (Miltenyi Biotec, Auburn, Calif.). The recovered cells were stained with PE-Cy5-conjugated anti-CD4, APC-conjugated CD11c, and a cocktail of FITC-conjugated anti-CD3, anti-CD14, anti-CD16, anti-CD15, anti-CD20 and anti-CD56 (Lineage-FITC) (BD Pharmingen, San Diego, Calif.). The CD4+CD11c-Lin- (pDC precursors) were isolated by cell sorting. Purity was routinely >99%. PDC (5-10×10^4/well) were cultured in 96-well round-bottom plates in RPMI 1640 (GIBCO, Carlsbad, Calif.) supplemented with 10% FCS (Atlanta Biologicals, Lawrenceville, Ga.). Where indicated, pDC were stimulated with CpGA (1 μM), CpGB (1 μM), R837 (10 ug/ml), IRS (4 uM), non-CpG sequence (4 uM), and different concentrations of LL-37 and of human genomic DNA. To prepare LL-37.DNA complexes, CpGB, huDNA, non-CpG and LL-37 were mixed by inversion and incubated for 30 min at room temperature before being added to the cells.
Supernatants samples were taken after 18-24 h after addition of the stimuli. Human IFN-α was measured using a human IFN-α ELISA kit (PBL Biomedical Laboratories, New Brunswick, N.J.) according to the company's instructions. IL-6 and TNF-α were detected using a kit for human IL6 and TNF-α (R&D Systems), respectively.

[2] = test system: myeloid (monocyte-derived) DC; experiment: Myeloid DC maturation (CD80) and cytokine secretion; format: cell-based, human; settings: RNA 10 μg ml^−1 premixed with LL-37 (10 μM), overnight culture
Experimental: (§1) Myeloid (monocyte-derived) DC were stimulated with RNA isolated from U937 cells (human RNA) or a synthetic single-stranded RNA sequence derived from HIV (ssRNA40) and a known TL-7/8 ligand either alone (10 pg ml^−1) or after premixing with LL-37 (10 μM). (a) Maturation was assessed by flow cytometry analysis of CD80 after overnight culture.
as §1, with “In a second set of experiments, myeloid” for “Myeloid”, “TLR-7/8” for “TL-7/8”, “μg” for “pg”, “μM).” for “μM). (a)”, “culture (FIG. 21A). Levels of TNF-α, IL-6, EL-12, and IL-23 were measured after overnight culture (FIG. 21B).” for “culture.”

B16-OVA tumor = experiment: Vaccination of mice bearing established B16-OVA melanoma, tumor size; format: in vivo, C57BL/6 mice; settings: mixed with irradiated B16-OVA
Experimental: Mice bearing a 7-d subcutaneous B16 melanoma transfected with a gene encoding OVA (B16-OVA) were vaccinated subcutaneously with 1) LL-37 alone; irradiated B16-OVA tumor (iB16-OVA); irradiated B16-OVA tumor mixed with […] CpG-2216 (iB16-OVA+CpG); irradiated B16-OVA tumor with […] LL-37 (iB16-OVA+LL-37). Tumor size was monitored by caliper every second day. Data represent mean of 4 mice per group.
We also performed vaccine studies using the B16 tumor model of melanoma, B16 is a highly aggressive tumor with low immunogenicity. B16 tumor cells can be transfected with ovalbumin (OVA) to provide an immunogen that allows easy tracking of the anti-tumor immune response. 3×10^5 B16-OVA tumor cells were implanted subcutaneously in the flank of C57BL/6 mice and allowed to grow. Seven days later mice were treated with a single subcutaneous injection of LL-37 mixed with irradiated B16-OVA tumor cells. Control injections included LL-37 alone, irradiated B16-OVA alone, or irradiated B16-OVA mixed with the synthetic TLR9 agonist CpG. A detailed method on the generation of these vaccines is provided in D2.1. Tumor size was monitored with a caliper and volumes estimated using the formula […]. The experiment was stopped 10 days after injection because all mice in the control group had died or their tumor had reached 20 mm in their maximal diameter.

[3] = test system: Thy1.2 positive CD4 T cells; experiment: Adjuvant activity: expansion of transferred HNT-TCR Tg CD4+ T cells in draining LN; format: in vivo, BALB/c Thy1.1 mice; settings: 35 μg s.c. with A20 lysate plus HNT peptide
Experimental: CD4+ T cells were purified from spleen and LN of HNT-TCR Tg mice (Thy 1.2), labeled with CFSE, and adoptively transferred (1×10^6) into BALB/c Thy1.1 mice. Next day, mice were immunized s.c. with (a) 5×10 ^6 A20 lysate plus HNT peptide and CpG-2216 ([…]); (b) A20 lysate plus HNT peptide and LL-37 ([…]); (c) A20F lysate plus HNT peptide; or (d) left untreated. Four days after immunization draining LN were harvested and Thy 1.2 positive CD4 T cells were measured by flow cytometry.
In another set of experiments, CD4+ T cells were purified from spleen and LN of HNT-TCR Tg mice (Thy 1.2), labeled with CFSE, and adoptively transferred (1×10^6) into BALB/c Thy1.1 mice. Next day, mice were immunized subcutaneously with 5×10^6 A20 lysate plus HNT peptide and CpG-2216 (35 μg), A20 lysate plus HNT peptide and LL-37 (35 μg), A20F lysate plus HNT peptide, or left untreated. Four days after immunization draining LN were harvested and Thy1.2 positive CD4 T cells were measured by flow cytometry.

B16 tumor = experiment: Intratumoral injection into established B16 melanoma, tumor size; format: in vivo, C57BL/6 mice
Experimental: Mice bearing a 7-d subcutaneous B16 melanoma were injected with […] of LL-37 once (single), or repeatedly for 3 days (3×). Control injections were done with PBS. Tumor size was monitored by caliper every second day. Data represent mean of 4 mice per group.
Intratumoral injection of LL-37 elicits potent anti-tumor activity. 3×10^5 B16 tumor cells were inoculated into shaved flanks of C57BL/6 mice. Tumors were allowed to grow for 7 days. On day 7, tumors were either injected with a single dose of LL-37 (100 μg), injected daily for 3 consecutive days with LL-37 or injected with saline as a control. Tumor size was monitored with a caliper and volumes estimated using the formula π/6×length×width^2. The experiment was stopped 12 days after injection because all mice in the control group had died or their tumor had reached 20 mm in their maximal diameter. […] Thus, intratumoral LL-37 injection induces potent anti-tumor activity.

[4] = test system: plasmacytoid dendritic cells (pDC); experiment: IFN-α and cytokine production by purified human pDC (ELISA of supernatants); format: cell-based; remark: listed apart in the source

Q: Which “IFN-α in pDC stimulated with non-CpG-ODN sequences plus LL-37” value [1] does the source give for “LLGDFFRKSKEKIGKEFKRIVQRIKDFLRNLVPRTES [LL-37]” here?
A: induce significant levels of IFN-α

Q: What about the “IFN-α production by pDC stimulated with nucleic acid alone or combined with LL-37, as labelled” value [1] of the same sequence?
A: converts genomic DNA of human and bacterial origin into potent IFN-α inducers

Q: And the “IL-6 production by pDC” value ([1]; LL-37 10 μM)?
A: only induced IFN-α but not IL-6 or TNF-α

Q: And the “TNF-α production by pDC” value ([1]; LL-37 10 μM)?
A: only induced IFN-α but not IL-6 or TNF-α

Q: And the “IFN-α by pDC relative to phosphothiorate CpG-B alone” value ([1]; LL-37 added to phosphodiesteric or phosphothiorate CpG-B)?
A: approximately 10 fold

Q: What about the “IFN-α produced by pDC (mean)” value ([1]; pDC cultured with LL-37, 10% serum in culture medium, n=10) of the same sequence?
A: 950 pg/ml

Q: What about the “IFN-α produced by pDC (range)” value ([1]; pDC cultured with LL-37, n=10) of the same sequence?
A: 200-4000 pg/ml

Q: What about the “Myeloid DC maturation and cytokine secretion” value [2] of the same sequence?
A: converts self-RNA and viral RNA into activator of myeloid DC maturation and cytokine secretion

Q: What about the “Adjuvant potency compared to CpGs (CpG-2216)” value (B16-OVA tumor) of the same sequence?
A: more potent than CpGs

Q: And the “Induction of T cell mediated immunity (adjuvant activity)” value [3]?
A: potent adjuvant activity

Q: What about the “Growth of established B16 tumor, single intratumoral injection” value (B16 tumor; 100 μg on day 7) of the same sequence?
A: significantly delayed the growth of established B16 tumor

Q: And the “Anti-tumor response, repeated intratumoral injection” value (B16 tumor; three consecutive days)?
A: showed a trend towards a better anti-tumor response

Q: What about the “Clump formation of pDC” value [4] of the same sequence?
A: induced pDC to form clumps

Q: And the “Maturation of pDC” value ([4]; not shown)?
A: did not induce maturation of pDC
